# From ChEMBL document CHEMBL1201862, “PubChem BioAssay data set” (2004)
# Calls of active or inactive are those of the source.
# How the values were obtained:
# [1] = reduction of Shn3 3'UTR-driven luciferase in osteoblasts – cell-based, Clone20 osteoblasts, firefly luciferase, cherry-picked, dose response (AID 624132); type: functional;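 also: firefly luciferase luminescence from reporter carrying the Shn3 3'UTR in osteoblasts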
# [2] = alpha-synuclein stem-loop luciferase translation blockers – H4 neuroglioma cells, luminescence, confirmation (AID 1988); type: functional, cell-based
# [3] = luciferase reporter signal suppression in cells – H4 neuroglioma cells, luminescence, dose response (AID 1990); type: functional, cell-based
# [4] = biological target: T1, Heat shock factor protein 1 (Mus musculus, UniProt P38532); assay: enhancement of HSF1-driven luciferase signal – cell-based, NIH3T3, luminescence, dose retest, confirmation (AID 435004); type: functional;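 also: stress induced by proteasome inhibitor MG132 added 30 min after compound; luciferase reporter driven by HSF1 response element in NIH3T3 cells; actives raise luminescence as potentiators of the MG132 stress response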
# T1 sequence (P38532 whole entry): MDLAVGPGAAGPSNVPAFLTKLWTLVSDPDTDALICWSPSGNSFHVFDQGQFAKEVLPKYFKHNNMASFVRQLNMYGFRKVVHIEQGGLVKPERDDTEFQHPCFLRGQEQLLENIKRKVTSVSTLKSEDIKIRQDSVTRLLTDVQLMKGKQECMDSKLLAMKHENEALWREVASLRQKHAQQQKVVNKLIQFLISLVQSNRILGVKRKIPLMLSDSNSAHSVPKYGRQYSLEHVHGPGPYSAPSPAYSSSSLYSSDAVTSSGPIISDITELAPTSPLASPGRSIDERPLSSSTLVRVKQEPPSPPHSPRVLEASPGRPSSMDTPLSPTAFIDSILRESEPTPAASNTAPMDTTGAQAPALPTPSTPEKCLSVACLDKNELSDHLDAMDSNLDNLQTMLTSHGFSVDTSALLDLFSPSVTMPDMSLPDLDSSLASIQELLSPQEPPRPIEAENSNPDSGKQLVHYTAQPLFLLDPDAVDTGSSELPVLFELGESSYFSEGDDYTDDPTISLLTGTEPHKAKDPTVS
# [5] = viability of uninfected HEp-2 cells – cell-based, HTS, cytotoxicity control for RSV inhibitor project, dose response (AID 2410); type: functional; conditions: human respiratory syncytial virus
# [6] = biological target: T2, Protein skinhead-1 (Caenorhabditis elegans, UniProt P34707); type: functional
# T2 sequence (P34707 whole entry): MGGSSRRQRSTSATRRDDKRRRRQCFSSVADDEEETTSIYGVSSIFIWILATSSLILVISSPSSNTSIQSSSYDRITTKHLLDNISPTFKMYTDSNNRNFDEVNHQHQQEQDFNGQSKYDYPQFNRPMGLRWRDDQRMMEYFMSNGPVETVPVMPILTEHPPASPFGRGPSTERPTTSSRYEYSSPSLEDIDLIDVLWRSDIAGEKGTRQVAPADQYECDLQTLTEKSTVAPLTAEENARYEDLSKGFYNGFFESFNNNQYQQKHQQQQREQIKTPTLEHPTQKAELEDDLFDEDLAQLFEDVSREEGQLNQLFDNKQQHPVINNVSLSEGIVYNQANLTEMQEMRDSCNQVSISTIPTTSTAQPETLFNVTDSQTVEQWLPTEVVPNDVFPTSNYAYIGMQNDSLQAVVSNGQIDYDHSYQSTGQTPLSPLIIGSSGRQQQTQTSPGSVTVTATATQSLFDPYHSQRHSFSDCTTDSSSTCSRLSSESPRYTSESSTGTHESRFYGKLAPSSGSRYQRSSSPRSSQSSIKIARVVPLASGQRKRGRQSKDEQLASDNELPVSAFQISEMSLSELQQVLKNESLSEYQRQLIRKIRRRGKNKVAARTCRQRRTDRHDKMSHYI
# [7] = biological target: T3, Corticotropin-releasing factor receptor 2/Corticotropin-releasing factor-binding protein (Homo sapiens, UniProt P24387+Q13324); assay: Dose Response confirmation of uHTS hits for small molecule antagonists of the CRF-binding protein and CRF-R2 receptor complex.; type: functional; conditions: read-out: IC50_Mean
# T3 sequence (Q13324 whole entry): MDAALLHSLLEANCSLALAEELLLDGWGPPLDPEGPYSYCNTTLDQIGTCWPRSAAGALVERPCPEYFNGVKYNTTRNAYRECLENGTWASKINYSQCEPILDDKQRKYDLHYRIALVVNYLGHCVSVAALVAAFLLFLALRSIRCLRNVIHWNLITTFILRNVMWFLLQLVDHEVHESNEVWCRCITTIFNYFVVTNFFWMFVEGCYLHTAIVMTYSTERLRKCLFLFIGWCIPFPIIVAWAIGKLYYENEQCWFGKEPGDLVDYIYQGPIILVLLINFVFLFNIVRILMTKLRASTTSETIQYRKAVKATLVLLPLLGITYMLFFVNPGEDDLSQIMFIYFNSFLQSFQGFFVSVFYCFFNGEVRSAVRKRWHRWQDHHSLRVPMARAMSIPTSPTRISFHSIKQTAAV
# T3 sequence (P24387 whole entry): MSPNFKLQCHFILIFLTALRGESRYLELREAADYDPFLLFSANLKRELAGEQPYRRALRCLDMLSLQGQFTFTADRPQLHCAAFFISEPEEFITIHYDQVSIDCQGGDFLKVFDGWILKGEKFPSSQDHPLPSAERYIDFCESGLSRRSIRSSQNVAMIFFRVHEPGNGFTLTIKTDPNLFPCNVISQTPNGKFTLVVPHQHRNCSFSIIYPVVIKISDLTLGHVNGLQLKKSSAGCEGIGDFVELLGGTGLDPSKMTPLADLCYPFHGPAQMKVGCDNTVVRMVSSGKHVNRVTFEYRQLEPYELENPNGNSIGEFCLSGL
# [8] = biological target: T3, Corticotropin-releasing factor receptor 2/Corticotropin-releasing factor-binding protein; assay: activators of CRF receptor 2 with binding protein – uHTS hits, confirmation (AID 602473); type: functional; conditions: read-out: EC50_Mean
# [9] = Luminescence Cell-Based Dose Response HTS to Identify Inhibitors of 5'UTR Stem-Loop Driven Prion Protein mRNA Translation in H4 Neuroglioblastoma Cells. [Related pubchem assays: 1827 (Project Summary), 1813 (Primary HTS)]; type: functional
# [10] = biological target: T1, Heat shock factor protein 1; assay: decrease of HSF1-responsive luciferase luminescence – cell-based, NIH3T3, dose retest, confirmation (AID 2382); type: functional;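 also: NIH3T3 fibroblasts with HSF1-driven luciferase reporter stressed by proteasome inhibitor MG132; luminescence from HSF1-driven luciferase expression after 8 hours of MG132 stress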
# [11] = biological target: T4, Calpain-2 catalytic subunit (Sus scrofa, UniProt P43367); assay: m-calpain protease blockers, concentration series – biochemical, fluorogenic peptide substrate, dose response (AID 1420); type: functional
# T4 sequence (P43367 whole entry): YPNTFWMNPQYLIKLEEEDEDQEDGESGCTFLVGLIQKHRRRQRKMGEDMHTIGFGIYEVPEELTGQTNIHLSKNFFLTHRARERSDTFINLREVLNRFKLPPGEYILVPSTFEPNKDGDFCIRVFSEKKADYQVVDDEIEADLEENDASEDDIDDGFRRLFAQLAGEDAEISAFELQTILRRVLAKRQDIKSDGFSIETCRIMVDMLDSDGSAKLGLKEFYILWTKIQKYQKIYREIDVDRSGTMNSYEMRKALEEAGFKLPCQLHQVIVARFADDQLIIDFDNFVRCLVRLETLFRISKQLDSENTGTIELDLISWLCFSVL
# [12] = Trypanosoma cruzi growth suppression in host cells – NIH3T3 host cells, beta-gal luminescence, confirmation (AID 2044); type: functional, cell-based;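 also: intracellular parasites grown in NIH/3T3 mouse fibroblasts as host cells; luminescent beta-galactosidase reporter signal from transgenic T. cruzi replicating inside host cells; inhibitors lower the luminescence signal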
# [13] = NIH3T3 cell viability loss – ATP luminescence, mouse fibroblasts, counter-screen, dose response (AID 2010); type: functional, cell-based;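 also: cells exposed to compound for about 90 hours before reading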
# [14] = tested on: INS1; assay: INS-1E survival protection against cytokine death – cell-based, luminescence, retest, dose response (AID 449756); type: functional; conditions: Rattus norvegicus;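 also: cell death triggered by IL-1 beta plus TNF-alpha plus IFN-gamma mixture; protective hits raise ATP signal compared with cytokine alone wells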
# [15] = biological target: Cytochrome P450 3A4 (Homo sapiens, UniProt P08684);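 also: CYP3A4 tested as one member of a cytochrome P450 panel screen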
# [16] = biological target: Cytochrome P450 2C9 (Homo sapiens, UniProt P11712)
# [17] = biological target: T5, Cytochrome P450 1A2 (Homo sapiens, UniProt P05177);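 also: PubChem cytochrome P450 panel assay, CYP1A2 panel member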
# T5 sequence (P05177 whole entry): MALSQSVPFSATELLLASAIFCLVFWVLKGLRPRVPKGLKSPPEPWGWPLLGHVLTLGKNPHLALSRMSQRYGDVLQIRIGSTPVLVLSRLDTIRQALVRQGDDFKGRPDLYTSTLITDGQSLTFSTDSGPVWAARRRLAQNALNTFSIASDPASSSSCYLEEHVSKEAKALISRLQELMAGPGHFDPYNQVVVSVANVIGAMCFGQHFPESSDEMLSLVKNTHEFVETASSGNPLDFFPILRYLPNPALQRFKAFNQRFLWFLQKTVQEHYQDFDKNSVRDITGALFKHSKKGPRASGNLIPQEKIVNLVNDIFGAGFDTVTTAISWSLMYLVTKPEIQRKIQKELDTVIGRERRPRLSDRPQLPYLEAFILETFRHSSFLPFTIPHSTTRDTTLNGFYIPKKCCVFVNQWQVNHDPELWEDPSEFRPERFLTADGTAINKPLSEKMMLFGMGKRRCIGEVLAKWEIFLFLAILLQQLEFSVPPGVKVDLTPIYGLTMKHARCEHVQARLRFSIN
# [18] = biological target: Cytochrome P450 2C19 (Homo sapiens, UniProt P33261); assay: Cytochrome panel assay with activity outcomes. Panel member name: p450-cyp2c19 Compounds with AC50 equal or less than 10 uM are considered active; type: functional
# Cytochrome P450 2C19, sequence (P33261 whole entry): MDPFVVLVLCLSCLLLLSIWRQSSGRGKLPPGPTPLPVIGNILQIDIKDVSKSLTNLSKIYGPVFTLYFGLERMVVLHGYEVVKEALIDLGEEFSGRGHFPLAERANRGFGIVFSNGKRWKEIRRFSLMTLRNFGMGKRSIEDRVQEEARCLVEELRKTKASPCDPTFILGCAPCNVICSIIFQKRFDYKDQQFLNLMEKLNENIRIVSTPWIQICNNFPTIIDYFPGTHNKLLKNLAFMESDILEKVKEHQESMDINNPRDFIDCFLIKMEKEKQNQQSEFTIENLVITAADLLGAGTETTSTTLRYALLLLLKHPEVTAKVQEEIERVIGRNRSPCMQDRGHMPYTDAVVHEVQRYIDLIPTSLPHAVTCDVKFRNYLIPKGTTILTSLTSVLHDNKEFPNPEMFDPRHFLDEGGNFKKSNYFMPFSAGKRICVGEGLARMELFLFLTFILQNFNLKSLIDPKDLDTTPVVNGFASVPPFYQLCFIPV
# Cytochrome P450 2C9, sequence (P11712 whole entry): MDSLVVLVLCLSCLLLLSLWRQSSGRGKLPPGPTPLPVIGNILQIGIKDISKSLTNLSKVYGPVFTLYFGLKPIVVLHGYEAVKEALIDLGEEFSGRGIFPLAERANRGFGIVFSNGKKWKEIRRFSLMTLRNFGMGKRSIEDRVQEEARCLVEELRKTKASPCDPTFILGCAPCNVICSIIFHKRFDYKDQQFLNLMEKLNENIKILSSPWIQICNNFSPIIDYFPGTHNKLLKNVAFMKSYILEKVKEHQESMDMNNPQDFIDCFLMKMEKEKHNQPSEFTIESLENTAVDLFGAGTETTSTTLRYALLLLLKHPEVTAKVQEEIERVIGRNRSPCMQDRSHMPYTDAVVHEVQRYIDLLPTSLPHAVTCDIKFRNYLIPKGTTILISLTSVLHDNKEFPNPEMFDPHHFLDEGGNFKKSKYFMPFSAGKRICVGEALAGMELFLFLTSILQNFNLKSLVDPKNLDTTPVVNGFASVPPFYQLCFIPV
# Cytochrome P450 3A4, sequence (P08684 whole entry): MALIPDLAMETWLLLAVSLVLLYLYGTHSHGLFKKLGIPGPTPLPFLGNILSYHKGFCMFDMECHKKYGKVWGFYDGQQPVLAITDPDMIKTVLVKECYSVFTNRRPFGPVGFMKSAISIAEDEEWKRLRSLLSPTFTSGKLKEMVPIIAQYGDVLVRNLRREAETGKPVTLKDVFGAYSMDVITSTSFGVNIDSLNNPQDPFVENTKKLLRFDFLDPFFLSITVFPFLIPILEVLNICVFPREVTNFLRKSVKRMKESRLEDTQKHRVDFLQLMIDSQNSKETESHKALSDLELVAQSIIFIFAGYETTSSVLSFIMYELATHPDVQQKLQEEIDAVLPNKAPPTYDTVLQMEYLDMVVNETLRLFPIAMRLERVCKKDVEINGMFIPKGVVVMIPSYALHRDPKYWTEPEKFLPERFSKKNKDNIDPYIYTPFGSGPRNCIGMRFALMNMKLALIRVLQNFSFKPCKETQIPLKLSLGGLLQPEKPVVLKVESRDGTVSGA
structure (smiles),measurement,setting,value
CCN1CCN(Cc2ccc(NC(=O)c3cc(NC(=O)c4cc5cccc(OC)c5o4)cc(OC)c3)cc2C(F)(F)F)CC1,AC50,[1],10.2 µM (active)
COc1ccc(NC(=O)c2cccc(N3C(=O)c4ccc(C(=O)Nc5ccc(OC)c(O)c5)cc4C3=O)c2)cc1O,EC50,[2],13.4 µM (active)
same,EC50,[3],15 µM (active)
CCOC(=O)CSc1nc2c(sc3ccc([N+](=O)[O-])cc32)c(=O)n1Cc1ccco1,EC50,[4],> 260 µM (inactive)
O=[N+]([O-])c1cccc2ccc(/C=C/c3ccc(Cl)cc3)nc12,CC50,[5],20 µM (active)
same,IC50,[6],> 100 µM (inactive)
COc1ccccc1/C=C/c1nc(S(=O)(=O)c2ccccc2)c(N(C)C)o1,IC50,[7],< 0.368 µM (active)
same,EC50,[8],> 53 µM (inactive)
Cc1cccc(-n2c(SCc3ccc(C#N)cc3)nnc2-c2c[nH]c3ccccc23)c1,EC50,[9],> 120 µM (not active)
same,EC50,[2],25.7 µM (active)
same,EC50,[3],> 120 µM (not active)
CC1CCCCN1S(=O)(=O)c1ccc(C(=O)Nc2sccc2C(N)=O)cc1 (stereo unspecified),CC50,[5],19.2 µM (active)
same,IC50,[6],> 100 µM (inactive)
same,EC50,[10],> 195 µM (not active)
CCCNC(=O)CCn1nc(-c2ccc(Cl)cc2)c2ccccc2c1=O,EC50,[2],> 120 µM (not active)
same,EC50,[3],18.5 µM (active)
C=C(C)COc1ccc(-c2nc(N)ncc2-c2ccc(OC)c(OC)c2)c(O)c1,EC50,[9],> 120 µM (not active)
same,EC50,[2],15.7 µM (active)
same,EC50,[3],33.7 µM (active)
CC1(c2ccc([N+](=O)[O-])cc2)NC(=O)N(CC(=O)c2ccc3c(c2)OCO3)C1=O (stereo unspecified),EC50,[4],> 260 µM (inactive)
same,EC50,[8],12.1 µM (active)
O=[N+]([O-])c1ccc(NCc2ccc(Cl)cc2)nc1,IC50,[6],32.1 µM (active)
same,IC50,[11],12.6 µM (not active)
CC(Oc1ccc(Cl)cc1)C(=O)OCC(=O)Nc1ncc(Cl)cc1Cl (stereo unspecified),EC50,[4],> 260 µM (inactive)
CS(=O)(=O)N(CC(=O)Nc1ccc(CC#N)cc1)c1ccc(C23CC4CC(CC(C4)C2)C3)cc1,EC50,[12],2.35 µM (active)
same,EC50,[4],> 260 µM (inactive)
same,EC50,[13],> 60 µM (not active)
same,AC50,[14],6.44 µM (active)
CC(C)CC(=O)Nc1ccc(N2CCOCC2)cc1,EC50,[4],> 260 µM (inactive)
COc1cc(NC(=O)c2cc3ccccc3o2)c(OC)cc1Br,EC50,[9],> 120 µM (not active)
same,EC50,[2],14.7 µM (active)
same,AC50,[15],10 µM (inconclusive)
same,AC50,[16],0.112 µM (inconclusive)
same,AC50,[17],2.24 µM (inconclusive)
Cc1ccc(OCC(=O)N2N=C(C(F)(F)F)CC2(O)C(C)(C)C)cc1C (stereo unspecified),EC50,[9],21.8 µM (active)
same,EC50,[2],33.1 µM (active)
same,EC50,[3],102 µM (active)
COc1cccc(C(=O)OCC(=O)NCCC2=CCCCC2)c1,IC50,[7],> 47.1 µM (inactive)
same,EC50,[8],> 53 µM (inactive)
CCCNC(=O)c1c(CSc2ccc(Cl)cc2)noc1C(=O)NCc1ccccc1,EC50,[4],> 260 µM (inactive)
COc1ccc(CNC(=O)CN(Cc2ccccc2)C(=O)CCC(=O)Nc2nccs2)cc1,EC50,[4],> 260 µM (inactive)
CCOc1ccc(S(=O)(=O)N2CN(c3cccc(C(C)=O)c3)c3nc4ccccc4nc32)cc1,IC50,[7],< 0.368 µM (active)
same,EC50,[8],> 53 µM (inactive)
Cc1nnc(C)n1/N=C/c1cccs1,AC50,[18],inconclusive
same,IC50,[7],> 47.1 µM (inactive)
same,EC50,[8],> 53 µM (inactive)
same,AC50,[17],17.8 µM (inconclusive)
COc1ccccc1C1SCCN1S(=O)(=O)c1ccccc1 (stereo unspecified),IC50,[7],> 47.1 µM (inactive)
same,EC50,[8],> 53 µM (inactive)
CCOc1cc(/C=N\NC(=O)C2C(=O)NCC2c2ccccc2)ccc1OC (stereo unspecified),EC50,[9],> 120 µM (not active)
same,EC50,[2],> 120 µM (not active)
same,EC50,[3],> 120 µM (not active)
same,EC50,[8],5.59 µM (active)
Cc1cccc(C)c1/N=C1\SC(CC(=O)Nc2c(C)cccc2C)C(=O)N1CCc1ccccn1 (stereo unspecified),EC50,[9],0.46 µM (active)
same,EC50,[2],95.8 µM (active)
same,EC50,[3],10.2 µM (active)
